Results taken from ChEMBL document CHEMBL3507680, “University of Dundee, Gates Library screen for HepG2 cell viability”.

Test: Human HepG2 cell viability assay in 384 well format
Format: toxicity, cell-based
Design: dose 125 nL, time 70.5 hour; cytotoxicity at 70.5 h: concentration not given beside the values
Conditions: HepG2 cells, read-out: Inhibition

| SMILES | cytotoxicity at 70.5 h [%] |
| --- | --- |
| COCCNC(=O)c1nnn(Cc2ccccc2)c1OC | -2.5 |
| COc1c(C(=O)NCC2CCCO2)nnn1Cc1ccccc1 (configuration not stated) | -3.19 |
| COc1c(C(=O)NCC(C)C)nnn1Cc1ccccc1 | -4.1 |
| CCCNC(=O)c1cc(C(C)C)nc(N2CCCC2)n1 | -8.39 |
| Cc1cccc(NC(=O)c2cccc(OCc3nnnn3C)c2)n1 | 18.7 |
| CC1CCN(C(=O)C2CC(=O)N(c3cnn(C(C)C)c3)C2)CC1 (configuration not stated) | -13.2 |
| CC(C)n1cc(N2CC(C(=O)N3CCC(C(N)=O)CC3)CC2=O)cn1 (configuration not stated) | -11.7 |
| COc1cc(-c2n[nH]c(CO)n2)cc(OC)c1OC | 29.6 |
| CC(=O)NCCOc1c(Cl)cccc1Cl | 28.8 |
| Cc1ccc2c(c1)c(C)cc(=O)n2CCCN | -4.61 |
| COCCCNC(=O)c1cc(C(C)C)nc(N2CCCC2)n1 | -10.1 |
| COCCNC(=O)c1cc(C(C)C)nc(N2CCCC2)n1 | -9.32 |
| CC(C)n1cc(S(=O)(=O)N2CCCCC2)cn1 | 9.02 |
| CCn1c(NCc2ccco2)nc2c(C)nn(C)c2c1=O | 31.6 |
| CCn1cc(CN(C)S(=O)(=O)c2cc(Cl)ccc2Cl)cn1 | 22.9 |
| CCOCCCNC(=O)c1nn(CC)cc1Cl | 21.2 |
| CCOCCCNC(=O)c1cn(CC)nc1C | -8.03 |
| Cc1ccc(NC(=O)c2n[nH]c(-n3cnnc3)n2)cc1C | 28.4 |
| Cc1ccc(C)c(NC(=O)c2n[nH]c(-n3cnnc3)n2)c1 | -0.779 |
| Cc1nn(C)c2c(N3CCN(C(=O)c4ccccc4)CC3)ncnc12 | -2.93 |
| CSCc1cccc(S(=O)(=O)N2CCSCC2)c1 | -4.49 |
| Cc1nn(C)c2cn(C(C)C(=O)NCc3cccnc3)nc12 (configuration not stated) | -1.5 |
| Cc1nc(N2CCCCC2)ncc1-c1cc(O)[nH]n1 | -3.47 |
| CCc1nc(NCC(=O)N2CCOCC2)c2c(n1)c(C)nn2CC | -9.61 |

| SMILES | cytotoxicity at 70.5 h [%] |
| --- | --- |
| CCC(=O)Nc1nnc(CCCOc2ccccc2)s1 | -13.1 |
| Cc1cccc2c1cnn2CCC(=O)NCC(=O)N(C)C | -9.91 |
| CCNC(=O)c1nnc2ccc(N3CCOCC3)cc2n1 | 12.6 |
| CCN(CC)C(=O)c1nnc2ccc(N3CCOCC3)cc2n1 | 26.5 |
| COCc1nc(N(C)C)ncc1C(=O)Nc1ccn(C)n1 | 5.17 |
| O=C1CC(c2ccccc2)c2snc(C(=O)O)c2N1 (configuration not stated) | 24.7 |
| CCN1C(=O)C(C)(C)c2cc(NC(=O)c3ccco3)ccc21 | -7.99 |
| CCn1ccc(C(=O)NCCCN2CCOCC2)n1 | -11.6 |
| Cc1cc(C)n(CCC(=O)N2CCC(c3nc(C(C)C)no3)CC2)n1 | -5.07 |
| CC(C)C(=O)NCCCn1ncc2c(Cl)cccc21 | -0.542 |
| Nc1ncc2c(n1)CN(C1CCCC1)C2=O | -7.28 |
| CC1(C)CC(N2Cc3nc(N4CCOCC4)ncc3C2=O)CC(C)(C)N1 | 13.3 |
| Cc1cccc(Cn2ccc(NS(C)(=O)=O)n2)c1 | -4.99 |
| Cc1ccc(Cn2ccc(NS(C)(=O)=O)n2)cc1 | -10.8 |
| O=C(COCc1nc(-c2ccncc2)no1)N1CCCCCC1 | -5.87 |
| COc1ccc(Nc2nc3c(C)nn(C)c3c(=O)n2C)c(OC)c1 | -18.2 |
| CCOc1ccccc1Nc1nc2c(C)nn(C)c2c(=O)n1C | 8.71 |
| CCN1CCN(c2nc(C(C)C)nc3c(C)nn(CC)c23)CC1 | 13.6 |
| CCCc1nc(N2CCN(CC)CC2)c2c(n1)c(C)nn2CC | -5.26 |
| CCn1cc(N)c(C(=O)NCc2cnn(C)c2)n1 | -7.78 |
| CNc1cc(C)nc(C2CN(Cc3cncs3)CCO2)c1 (configuration not stated) | -11.5 |
| Cc1nc(C2CCCN2C(=O)CCc2ccccc2)ncc1C(N)=O (configuration not stated) | -11.8 |
| O=C(c1cnco1)N1C[C@@H](O)[C@H](Oc2cccc(F)c2)C1 | 14.4 |
| O=C(O)CN1CCOCC(Cc2ccc(Cl)cc2)C1 (configuration not stated) | -7.85 |

| SMILES | cytotoxicity at 70.5 h [%] |
| --- | --- |
| Cc1ccnc(C2CCCN2C(=O)c2cnccn2)n1 (configuration not stated) | -9.28 |
| COCCC(=O)N1CCCC1c1nccc(C)n1 (configuration not stated) | -12.1 |
| NC(=O)CN1CCOCC(Cc2ccccc2)C1 (configuration not stated) | -11.7 |
| Cc1ccccc1CN(C)C(=O)c1cc(C2CCCN2C)ccn1 (configuration not stated) | 10.5 |
| Cc1ncsc1CN1CCN(C2CCOCC2)CC(C(N)=O)C1 (configuration not stated) | 10.5 |
| c1ccc(-c2nnc(C3CCCN(CC4CCCCC4)C3)o2)nc1 (configuration not stated) | -7.93 |
| CCC(=O)N1CCC(c2nc(O)c3c(n2)CN(C2CCCCC2)CC3)C1 (configuration not stated) | 31.2 |
| O=C(c1cccnc1)N1CCC(c2nc(O)cc(-c3ccncc3)n2)C1 (configuration not stated) | -10.5 |
| O=C(c1ccccn1)N1CCC(c2nc(O)cc(-c3ccncc3)n2)C1 (configuration not stated) | -5.15 |
| CC(=O)N1CCC(c2ccnc(Nc3cncnc3)n2)CC1 | -8.15 |
| O=C(C1CC1)N1CCc2nc(C3CCN(C(=O)C4CC4)C3)nc(O)c2C1 (configuration not stated) | -10 |
| NC(=O)CN1CCCC(CCCc2ccccn2)(C(N)=O)C1 (configuration not stated) | -3 |
| O=C(Cn1ccnc1)N1C[C@@H]2CC[C@H](Oc3cccc(F)c3)[C@@H]2C1 | -6.97 |
| CS(=O)(=O)N1CCCC1c1cccc(Cc2ccccc2F)n1 (configuration not stated) | -6.97 |
| Cc1nc(NC2CCCC2)cc(C2CCN2C(=O)c2cnn(C)c2)n1 (configuration not stated) | -3.93 |
| CCC(=O)N1CCC(Cc2cc(Nc3ncccn3)ncn2)CC1 | -4.23 |
| O=C(C1CCC1)N1CCCC(c2ccnc(Nc3cnccn3)n2)C1 (configuration not stated) | -7.38 |
| CN(C)C(=O)C1CN(Cc2nccs2)CCN(S(C)(=O)=O)C1 (configuration not stated) | -4.9 |
| Cc1cc(-c2cnc(NC3CCCC3)nc2-c2ccco2)on1 | -6.66 |
| Cc1cc(-c2cnc(NC3CCCC3)nc2-c2ccc(C)o2)on1 | -5.77 |
| CCn1cc(CN2CCc3nc(-c4ccccn4)nc(O)c3C2)cn1 | -10 |
| C=Cn1ncc(CN2CCc3nc(-c4ccncc4)nc(O)c3C2)c1C | -4.39 |
| Cc1cc(-c2cnc(NCc3ccc4c(c3)OCO4)nc2C(C)C)on1 | -4.67 |
| Cc1cc(-c2cnc(NC3CC3)nc2-c2ccco2)on1 | -12.6 |

| SMILES | cytotoxicity at 70.5 h [%] |
| --- | --- |
| COc1ccccc1CN1CCc2c(nc(-c3ccccn3)[nH]c2=O)C1 | 12.7 |
| O=C(O)C1(Cc2cccc(-c3ccc(F)cc3)c2)CCOCC1 | 9.21 |
| Cc1ncncc1C(=O)N1CCC(O)(CN(C)Cc2ccc(F)cc2)C1 (configuration not stated) | -5.31 |
| CC(=O)NC(=O)C1(CCCc2ccncc2)CCN1 (configuration not stated) | -2.25 |
| NC(=O)C1(c2cnccn2)CCCN1Cc1ccc(F)c(F)c1 (configuration not stated) | 7.58 |
| CC(=O)N1CCCC1c1cncc(Oc2ccc(F)cc2)n1 (configuration not stated) | -3.89 |
| Cc1ccc(C(=O)N2CCOC(c3nc(-c4ncccn4)no3)C2)cc1 (configuration not stated) | -2.85 |
| Cc1noc2nc(C3CCCN(Cc4ccncc4)C3)cc(C(F)F)c12 (configuration not stated) | -3.5 |
| O=C(NCC1CC1)Nc1cnc2ccc(F)cc2c1O | -3.07 |
| O=C(NCCO)Nc1cnc2cc(Cl)ccc2c1O | -5.27 |
| COCCC(=O)N1CCCC(c2nc(O)cc(-c3ccncc3)n2)C1 (configuration not stated) | 18 |
| CC(C)(C)C(=O)N1CCC(c2nc(O)cc(-c3ccncc3)n2)CC1 | -1.05 |
| CCn1cc(CN2CCC(O)(Cn3ccc4ncccc43)CC2)cn1 | -0.72 |
| OC1(Cn2ccc3ncccc32)CCN(Cc2cc(F)cc(F)c2)CC1 | 5.69 |
| c1cnc2[nH]c(C3CCNCC3)c(CN3CCOCC3)c2c1 | -1.47 |
| CCC(CC)C(=O)NC1CCCc2nc(N3CCOCC3)ncc21 (configuration not stated) | -4.12 |
| Cc1ccc(=O)n(CC2(O)CCN(Cc3cccs3)CC2)n1 | -8.17 |
| CCn1cc(CN2CCC(O)(Cn3nc(C)ccc3=O)CC2)cn1 | -4.18 |
| O=C(NC1CC1)C1(Cc2cc(-c3ccc(F)cc3F)no2)CCOCC1 | 0.221 |
| Cc1ncsc1C(=O)N1CCCC(c2cc(C(F)F)n3ncnc3n2)C1 (configuration not stated) | 0.833 |
| c1cnc2[nH]c(C3CCCC3)c(CN3CCCCC3)c2c1 | -7.43 |
| CSc1ccc(CN2C[C@@H]3CC[C@@](O)(c4ccc(C)cn4)[C@@H]3C2)cc1 | 41.8 |
| Cc1ccc([C@]2(O)CC[C@H]3CN(Cc4ccc(Cl)cc4Cl)C[C@H]32)nc1 | 27.6 |
| CCN1CCN(Cc2c(C3CCCC3)[nH]c3ncccc23)CC1 | -6.15 |

| SMILES | cytotoxicity at 70.5 h [%] |
| --- | --- |
| CC(=O)NC1CCN(C(=O)Nc2cccc(SC(F)F)c2)CC1 | -0.185 |
| CC(NC(=O)CCN1CCOC1=O)(c1ccccc1)c1ccccc1 | 0.0243 |
| CC1CCCCN1C(=O)CCn1cnc2sccc2c1=O (configuration not stated) | -5.84 |
| CCC(C)(NC(=O)CCN1CCOC1=O)C(=O)OC (configuration not stated) | 20.8 |
| O=C(c1cnc(NCc2cccnc2)c(Cl)c1)N1CCCCC1 | -12.2 |
| CC(C)(C)C(N)c1nc(-c2nnc[nH]2)no1 (configuration not stated) | -2.07 |
| Cc1ccc(C)c(Oc2ccc(CNC(=O)C3CCC(=O)N3)cn2)c1 (configuration not stated) | -4.69 |
| O=C(Nc1ccc(-c2csnn2)cc1)N1CCN2CCCCC2C1 (configuration not stated) | 5.22 |
| CCOc1ccc(NC(=O)NC2CCc3[nH]ncc3C2)cn1 (configuration not stated) | -2.96 |
| CCSc1ccc(NC(=O)NC2CCc3[nH]ncc3C2)cn1 (configuration not stated) | -4.32 |
| CNC(=O)C1(CCCc2ccncc2)CCCCN1 (configuration not stated) | 15.5 |
| O=C(NCCn1nc(C2CCNC2)c2cccnc21)c1ccccc1 (configuration not stated) | -4.57 |
| O=C(NCCn1nc(C2CCNC2)c2cccnc21)c1ccccn1 (configuration not stated) | -2.16 |
| CN(C)CCn1c([C@@H]2CCCO2)cc2cccnc21 | 2.42 |
| c1cnc2c(c1)cc([C@H]1CCCO1)n2CCN1CCCC1 | -1.04 |
| Cc1ccc2c(c1)CN(C(=O)c1cccnc1)C(CN(C)C)CO2 (configuration not stated) | 3.4 |
| Cc1ccc2c(c1)CN(C(=O)c1cnc(C)cn1)C(CN(C)C)CO2 (configuration not stated) | 14.1 |
| CNC(=O)CCc1cc(C2CCNCC2)nc(C)n1 | -5.9 |
| COc1ccc(CN(Cc2cnc(N)nc2)CC2CCCO2)c(OC)c1 (configuration not stated) | -2.54 |
| Cc1ccc(CN(Cc2[nH]cnc2C)C2CC(C)(C)NC(C)(C)C2)o1 | 17.5 |
| Cc1ccc(CN(Cc2ccncc2)C2CC(C)(C)NC(C)(C)C2)o1 | -2.36 |
